Earlier results on three substances are cited in US9856304B2, “Peptide and application thereof” (Saitama Medical University, priority 2013, dated 2018).

This data set relates to pancreatic β cells. The conditions noted are these: as described in Patent Document 1; cited from earlier work.

As to “B: 19 amino acid fragment of human TM4SF20, Position 78 to 96, from Patent Document 1 (CNNRTGMFLSSLFSVITVI; listed as Homo sapiens)”, the “activity for promoting increase in pancreatic β cells” value (from here on “activity for promoting increase”) is recorded as “not as high as expected”.

For the substance “C: 19 amino acid fragment of human TM4SF20, Position 161 to 179, from Patent Document 1 (TSNDTMASGWRASSFHFDS; listed as Homo sapiens)”, the “activity for promoting increase” value is “not as high as expected”.

For the substance “Peptide A: 19 amino acid fragment of human TM4SF20, Position 98 to 116, from Patent Document 1 (ALYCMLISIQALLKGPLMC; listed as Homo sapiens)”, the “activity for promoting increase” value is given as “not as high as expected”.
